According to PubChem BioAssay (NCI):
Where “and” joins values, the source holds several entries; their conditions need not be identical. Equal entries are not always repeated.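 Exposure lasted 48 hours, with cells grown in 96-well plates and compounds tested at five concentrations. The concentration for 50% growth inhibition is given as GI50. TGI denotes the concentration required for complete inhibition of growth.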

Key:
Assay in all cases: inhibition of tumour cell growth, NCI panel, 48 h
[1] = system: NCI-H522 lung
[2] = system: M14 melanoma
[3] = system: CCRF-CEM leukemia
[4] = system: NCI/ADR-RES ovarian
[5] = system: BT-549 breast
[6] = system: HT29 colon
[7] = system: UACC-62 melanoma
[8] = system: OVCAR-4 ovarian
[9] = system: SNB-75 CNS
[10] = system: HL-60(TB) leukemia

Compound	GI50 [1]	TGI [1] [µM]	GI50 [2] [µM]	TGI [2] [µM]	GI50 [3] [µM]	TGI [3] [µM]	GI50 [4] [µM]	TGI [4] [µM]	GI50 [5] [µM]	TGI [5] [µM]	GI50 [6] [µM]	TGI [6] [µM]	GI50 [7] [µM]	TGI [7] [µM]	TGI [8] [µM]	TGI [9] [µM]	TGI [10] [µM]	GI50 [10] [µM]	GI50 [8]	GI50 [9] [µM]
Cc1csc2[n+]1-c1ccccc1N(C(=O)Nc1ccccc1)C(C)C2 (centres undefined)	61.9 µM	> 100	43.7	> 100	29.5	69.6	25.1	88.4	> 100	> 100	36.6	> 100	60.4	> 100						
CCOC(=O)C(=O)CC1=Nc2ccccc2SC(c2cccc(C)c2)C1 (centres undefined)		32.8		35.3		63.1						29.8		31.9	32	38.7				
CC1=C(/C=C/C(C)=C/C2CC(N(C)C)=CC(=O)O2)C(C)(C)CCC1 (centres undefined)				28.3		22.3						27.9		27	31.7	32.4	16			
CC(=O)[O-].Cn1ccnc1CNCc1nccn1C.[Cu+2].[O-][Cl+3]([O-])([O-])[O-]	> 100 µM	> 100	> 100	> 100	> 100	> 100					> 100	> 100	26.9	> 100	> 100	> 100	> 100	> 100	3.1 µM	> 100
c1ccc(C2OC3(CCC[C@H]4C[C@H]43)O[C@H]2c2ccccc2)cc1 (some centres undefined)		67.1		> 100		49.9						> 100		> 100	> 100	91.9	41.1			
C[CH2][Ge]([CH2]C)([CH2]C)[O]C(=O)C(OC(C)=O)c1ccccc1 (centres undefined)	> 100 µM	> 100	> 100	> 100	24.1	> 100					> 100	> 100	> 100	> 100	> 100	> 100			> 100 µM	> 100
CN(C)CCNC(=O)c1cccc2cc3c(Cl)cccc3nc12		> 100										6.94		3.82	8.15	8.37				
CC(=O)Nc1c(Nc2ccccc2)[nH]c(C)nc1=S		> 100		> 100		> 100								> 100	> 100	> 100	> 100			
O=C(O)[C@H](NS(=O)(=O)c1ccc(F)cc1)c1ccccc1		> 100		> 100		> 100						> 100		> 100	> 100	> 100				
C=C/C=C/[C@@H](O)CC(=C)C[C@H]1OC2[C@H](C)[C@@H](OC(=O)C[C@H]3C[C@H](OC(C)=O)C[C@@]4(C[C@@](C)(O)C[C@H](CC(=C)[C@@H](C)[C@H](OC(C)=O)[C@H](C)C(=O)C[C@@H]5C[C@H](OC)CC6(C[C@@H](O)C[C@H](/C=C\CCC[C@H]7O[C@](O)(C=C[C@H]7C)[C@H]2O)O6)O5)O4)O3)[C@@H]1O	0.000825 µM and < 0.0025 µM	< 0.0025		0.00709	0.0025	> 25		0.164	0.0025	> 25	0.0025				> 25	> 25			0.000835 µM and 0.0025 µM	> 25
COc1ccc2c3c([nH]c2c1[N+](=O)[O-])C(C)N(Cc1ccccc1)CC3 (centres undefined)				28.1		> 100						13.7		> 100	> 100		6.1			
N#C/C(=C/c1ccc2c(c1)OCO2)C(=O)c1ccccc1		> 100		> 100		> 100						> 100		> 100	> 100	> 100				
N/C(=N\N=C\c1ccc(C(F)(F)F)cc1)NO		50.4		29.2		95.5						> 100		21.7	> 100	> 100	46.3			
Cc1cccc(C)c1NC(=O)C1=NC(=S)NC(c2ccccc2)C1c1nc2ccccc2s1 (centres undefined)		> 100		> 100		> 100						> 100		> 100	> 100	> 100	> 100			
COCN1COCN=C1NC#N		> 100		> 100								> 100		> 100	> 100	> 100	> 100			
CN(C)c1ccc2oc(=O)c3ccccc3c2c1		> 100		> 100		> 100				> 100		> 100		> 100	> 100	61.8	> 100			
COC(=O)c1ccc(CN2C(=O)C(Cl)=C(Nc3cccc(Cl)c3C)C2=O)cc1	3.51 µM	20.8	4.01	> 100	3.32	> 100	34.8	> 100			4.85	> 100	13.4	> 100	> 100	95			26.5 µM	14.8
O=C1N2Cc3c4ccc5c3CN3C(=O)N6Cc7c(ccc(c7CN1C6(c1ccccc1)C23c1ccccc1)OCCOCCNCCOCCO4)OCCOCCNCCOCCO5 (centres undefined)		> 100		57.8		> 100						> 100		> 100	> 100	> 100				
COC(=O)C1Cc2c(n(C)c3ccccc23)C(CCC(=O)O)N1Cc1ccccc1 (centres undefined)		91.2		62.2		> 100						> 100		77.1	> 100	89.7	> 100			
NC(=O)c1cc([N+](=O)[O-])c(Cl)c([N+](=O)[O-])c1Cl	0.162 µM	0.319			0.4	2.38	2.01	4.93	3.41	12.6	0.308	1.05	1.39	2.85	3.19	3.69			1.77 µM	1.77
O=C(CCCN1CCC(O)(c2ccc(Cl)cc2)CC1)c1ccc(F)cc1		39.5		34.6		> 100		88.8		> 100		> 100		21.4	> 100	68.9				
